According to patent US20220290140A1, “TRANS-CYCLOOCTENE LABELED ANTISENSE OLIGONUCLEOTIDES, RADIO LABELED TETRAZINE AND METHODS” (Biogen MA Inc., priority 2019, published 2022):
Where two headings read alike, the source gives them in different places.

Assays:
[1] = Pretargeted PET/CT imaging, ASO-TCO i.t. then 18F-Tz i.v.; assay type: in vivo, Sprague-Dawley rats
Procedure: Sprague-Dawley rats were administered ASO-TCO intrathecally (2.5 mM in 30 μL saline). After either 24 hours (center) or 168 hours (right), those rats were then injected I.V. with ^18F-537-Tz (22-30 MBq; […]; 0.2 nmol). Rats were imaged by PET-CT from 75-90 min. post-injection of radiotracer. Control rats (left) received saline only.
FIG. 5 is a bar graph showing Regions of Interest (ROI) drawn from the PET data. Ratios were obtained of % ID/g in tissue of interest (brain and spine) to the reference region (heart). […] Lanes in bar graph depicted from left to right: ASO-TCO (brain:heart); Naive (brain:heart); ASO-TCO (spine:heart); and Naive (spine:heart).
Rats were administered Malat1 ASO-TCO intrathecally (I.T.) and 24 hours later were given ^18F-Tz intravenously (I.V.). They were then imaged 75-90 p.i. by PET/CT.
The same uptake is not seen in rats that received only the ^18F-Tz radiotracer.

[2] = Static PET/CT of spine in NHP, spinal cord ROI with muscle as reference; assay type: in vivo; details: cynomolgus monkey, 24 h post-ASO scan
Procedure: (§1) Dynamic PET scans (0-120 min) with arterial input function were performed on a female cynomolgous monkey using ^18F-537-Tz (5.7±0.7 mCi, 0.14±0.12 μg) in order to evaluate the tracer's efficacy in non-human primates. Parent fraction of tracer in arterial plasma was determined by extracting tracer using acetonitrile and analysis by radioHPLC. Baseline scans were performed first, measuring tracer kinetics in the brain. Malat1 ASO-TCO (20 mg in 2.4 mL aCSF) was then injected intrathecally under fluoroscopic guidance and ^18F-537-Tz PET/CT imaging performed at 24 h and 168 h under isoflurane anesthesia. Imaging data were co-registered to a cyno brain atlas, and TAC in subregions of interest were derived from them. Static PET/CT scans were acquired in each imaging session, with the field of view (FOV) oriented to capture the spine. This scan took place 130-160 min p.i. of tracer, and an ROI drawn over the spinal cord with muscle as a reference region.

[3] = Dynamic PET/CT of brain in NHP, baseline and post Malat1 ASO-TCO; assay type: in vivo; details: cynomolgus monkey
Procedure: The pretargeting PET tracer ^18F-537-Tz was tested in a cynomolgus monkey, including baseline scans and a homologous blocking scan. The monkey was then dosed with Malat1 ASO-TCO and scanned again at 24 h and 168 h.
as §1

[4] = molecular target: T1, BCRP (Homo sapiens, UniProt Q9UNQ0); experiment: in vitro; assay type: in vitro ADME; details: dog
T1 construct: expressed in transfected cells; host or cells: MDCK (canine kidney) cells expressing BCRP
T1 sequence (Q9UNQ0 1-655): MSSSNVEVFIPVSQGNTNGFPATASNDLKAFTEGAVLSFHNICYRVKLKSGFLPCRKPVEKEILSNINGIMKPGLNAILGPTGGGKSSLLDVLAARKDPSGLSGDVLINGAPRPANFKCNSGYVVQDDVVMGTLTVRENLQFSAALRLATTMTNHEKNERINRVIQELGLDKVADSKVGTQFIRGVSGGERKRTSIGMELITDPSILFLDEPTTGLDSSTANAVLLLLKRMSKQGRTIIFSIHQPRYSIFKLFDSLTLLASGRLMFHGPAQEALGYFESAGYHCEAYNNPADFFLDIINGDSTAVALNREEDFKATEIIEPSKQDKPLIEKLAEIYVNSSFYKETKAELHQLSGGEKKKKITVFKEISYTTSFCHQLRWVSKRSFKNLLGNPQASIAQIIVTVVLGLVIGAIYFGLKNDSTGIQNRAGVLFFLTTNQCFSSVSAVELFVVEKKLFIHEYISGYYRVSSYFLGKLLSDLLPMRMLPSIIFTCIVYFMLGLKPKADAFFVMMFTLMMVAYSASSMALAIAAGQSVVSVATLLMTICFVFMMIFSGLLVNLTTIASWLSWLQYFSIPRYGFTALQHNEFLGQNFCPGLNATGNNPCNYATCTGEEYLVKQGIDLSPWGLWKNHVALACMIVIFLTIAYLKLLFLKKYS
Description: (§2) As pretargeting is a 2-component system, an ^18F-Tz was developed to be CNS-penetrant based on cnsPET-MPO modeling (Zhang, L., et al. (2018). J Med Chem 61(8): 3296-3308).

[5] = Static PET/CT of upper spine and CSF; assay type: in vivo, rat
Description: The static PET/CT images of ^18F-537-Tz uptake in the upper rat spine are illustrated in FIG. 12. […] There was a 10% and 15% increase in the radioactivity uptake in the spine and CSF when comparing the baseline and post ASO-TCO dosed rats (Table 4).

[6] = Parent fraction and blood kinetics of tracer in arterial plasma in NHP; assay type: in vivo, cynomolgus monkey
Procedure: as §1

[7] = Dynamic PET scans of brain, baseline, homologous block and pretargeted; assay type: in vivo, rat
Procedure: (§3) Dynamic PET scans were performed with arterial sampling to determine parent fraction of the tracer ^18F-537-Tz in baseline and pretargeted scans. Baseline imaging with a comparison to a homologous block with non-radioactive compound ^19F-537-Tz at 1 mg/kg was performed on a single rat, where non-radioactive compound was administered i.v. 5 min before injection of tracer. Next, three additional rats were imaged at baseline with no ASO-TCO administered. A final three rats received pretargeted scans and were dosed intrathecally with 0.56 mg Malat1 ASO-TCO in 30 μL saline followed by a 40 μL saline flush. 24 h after injection of the ASO, ^18F-537-Tz was injected intravenously and dynamic PET imaging performed.
Time-activity-curves (TAC) from 0 to 60 min showing the brain subregion distribution of ^18F-537-Tz in rat 2 at baseline and following iv administration of 1 mg/kg of unlabeled […] are illustrated in FIG. 9. […] The average brain regional SUV from 40-60 min of the scans were similar in the baseline and homologous block scans (Table 1).
PET/CT images with summed radioactivity from 0 to 60 min showing the brain distribution of ^18F-537-Tz in the 4 rats scanned at baseline and the 3 rats scanned 24 h after i.t. administration of ASO-TCO are illustrated in FIG. 10. There was an increase in brain uptake of radioactivity observed in all the ASO-TCO dosed rats. There was an increase of ca. […]

[8] = Brain protein binding (BPB); assay type: in vitro ADME
Description: as §2

[9] = Plasma protein binding (PPB); assay type: in vitro ADME; details: rat, read-out: PPB (rat) unbound
Description: as §2

[10] = rat, in vivo, 1 mg/kg
Procedure: as §3
A metabolite analysis method was developed to enable the tracer kinetic modelling using metabolite corrected plasma activity as an input function. The plasma radioactivity extraction efficiency for all samples was determined and was satisfactory using 1:1 plasma:ACN. The recovery from the HPLC column of the injected radioactivity was determined for each plasma extract injected. Good recovery of the injected radioactivity from the HPLC column was obtained for each plasma extract injection. For the 3 baseline scans, the parent compound fraction of the total activity found in plasma was 86-90% at 5 min, and this fraction decreased to 66-74% at 60 min after ^18F-537-Tz injection. […]

[11] = set-up: species or system mice; details: mouse, in vivo, 10 min
Description: as §2

[12] = Microsome stability; assay type: in vitro ADME; details: microsomes; read-out: Microsome Stability t1/2
[13] = rats treated with ASO-TCO vs control rats that received only tracer, P<0.005
[14] = baseline vs post ASO-TCO dosed rats
[15] = rats, Baseline group, ca. 70-80 min after tracer injection
[16] = rat Subject 2, Baseline scan, 40-60 min p.i. of tracer
[17] = rat Subject 2, Postdose (homologous block, 1 mg/kg non-radioactive compound i.v. 5 min before tracer), 40-60 min p.i.
[18] = rats, Baseline group (no ASO-TCO), 40-60 min p.i. of tracer
[19] = rats, Baseline group, 40-60 min p.i. of tracer
[20] = rats, Pretargeted group (0.56 mg Malat1 ASO-TCO i.t. 24 h before tracer), 40-60 min p.i.
[21] = rats, Pretargeted group (Malat1 ASO-TCO i.t. 24 h before tracer), 40-60 min p.i.
[22] = rats, Pretargeted vs Baseline, 40-60 min p.i.

O=C(Cc1ccc(-c2nncnn2)cc1)NCC[18F] [Compound 1]
uptake of tracer in brain and spinal cord (PET/CT images) ([1]; rats given Malat1 ASO-TCO I.T. 24 hours before tracer I.V., imaged 75-90 p.i.): specific uptake | Brain-to-heart ratio from ROIs [1, 13]: significantly higher | spine-to-heart ratio from ROIs [1, 13]: significantly higher | spinal cord SUV normalized to muscle, higher signal than baseline scan [2]: ~25% | uptake of the tracer in the brain, baseline PET/CT ([3]; 2-hour scan): good uptake | SUV uptake, baseline vs post-ASO scans (whole brain ROI) ([3]; 24 h and 7 days after Malat1 ASO-TCO i.t.): No significant different | difference in SUV between baseline and pretargeted scans in the brain ([3]; normalized TACs, final timepoint): ~10% | efflux ratio [4]: 0.51 | increase in radioactivity uptake in the CSF [5, 14]: 15% | increase in radioactivity uptake in the spine [5, 14]: 10% | Radioactivity uptake CSF [5, 15]: 1.18 | Radioactivity uptake Spine [5, 15]: 0.95 | Radioactivity uptake Spine ([5]; rats, Pretargeted group (i.t. dosing of ASO-TCO), ca. 70-80 min after tracer injection): 1.04 | % Change of radioactivity uptake CSF ([5]; rats, Pretargeted vs Baseline): 16% | % Change of radioactivity uptake Spine ([5]; rats, Pretargeted vs Baseline): 9% | Parent fraction, tracer intact ([6]; cynomolgus monkey arterial plasma, over the course of imaging): > 80% | Blood kinetics of the tracer ([6]; cynomolgus monkey, over 30 min): uptake and rapid clearance | SUV Plasma (40-60 min) ([7]; rat Subject 2, Baseline scan): 1.12 | SUV Brain [7, 16]: 1.29 | SUV Cerebellum [7, 16]: 1.38 | SUV Cortex [7, 16]: 1.07 | SUV Frontal Cortex [7, 16]: 1.16 | SUV Hippocampus [7, 16]: 1.28 | SUV Hypothalamus [7, 16]: 1.45 | SUV Thalamus [7, 16]: 1.46 | SUV Plasma (40-60 min) ([7]; rat Subject 2, Postdose (homologous block, 1 mg/kg non-radioactive compound i.v. 5 min before tracer)): 1.45 | SUV Brain [7, 17]: 1.22 | SUV Cerebellum [7, 17]: 1.38 | SUV Cortex [7, 17]: 1.10 | SUV Frontal Cortex [7, 17]: 1.24 | SUV Striatum [7, 17]: 1.40 | SUV Thalamus [7, 17]: 1.52 | SUV Hippocampus ([7]; rat, in vivo): 1.43 | SUV Striatum ([7]; rat, in vivo): 1.42 | SUV Hippocampus ([7]; rat, in vivo, iv, 1 mg/kg): 1.27 | SUV Hypothalamus ([7]; rat, in vivo, iv, 1 mg/kg): 1.43 | SUV Cerebellum [7, 18]: 1.52 | SUV Cortex [7, 18]: 1.25 | SUV Frontal Cortex [7, 18]: 1.33 | SUV Hypothalamus [7, 18]: 1.62 | SUV Plasma [7, 18]: 1.22 | SUV Striatum [7, 18]: 1.52 | SUV Thalamus [7, 18]: 1.64 | SUV Whole Brain [7, 18]: 1.45 | SUV normalized to plasma, Cerebellum [7, 19]: 1.27 | SUV normalized to plasma, Cortex [7, 19]: 1.05 | SUV normalized to plasma, Frontal Cortex [7, 19]: 1.11 | SUV normalized to plasma, Hippocampus [7, 19]: 1.2 | SUV normalized to plasma, Hypothalamus [7, 19]: 1.36 | SUV normalized to plasma, Striatum [7, 19]: 1.27 | SUV normalized to plasma, Thalamus [7, 19]: 1.37 | SUV normalized to plasma, Whole Brain [7, 19]: 1.21 | SUV Cerebellum [7, 20]: 1.9 | SUV Cortex [7, 20]: 1.66 | SUV Frontal Cortex [7, 20]: 1.66 | SUV Hippocampus [7, 20]: 1.85 | SUV Hypothalamus [7, 20]: 1.89 | SUV Plasma [7, 20]: 1.18 | SUV Striatum [7, 20]: 1.77 | SUV Thalamus [7, 20]: 1.95 | SUV Whole Brain [7, 20]: 1.79 | SUV normalized to plasma, Cerebellum [7, 21]: 1.67 | SUV normalized to plasma, Cortex [7, 21]: 1.42 | SUV normalized to plasma, Frontal Cortex [7, 21]: 1.43 | SUV normalized to plasma, Hippocampus [7, 21]: 1.61 | SUV normalized to plasma, Hypothalamus [7, 21]: 1.63 | SUV normalized to plasma, Striatum [7, 21]: 1.47 | SUV normalized to plasma, Thalamus [7, 21]: 1.61 | SUV normalized to plasma, Whole Brain [7, 21]: 1.53 | % Change of SUV normalized to plasma, Cerebellum ([7]; rats, Pretargeted vs Baseline): 31% | % Change of SUV normalized to plasma, Cortex ([7]; rats, Pretargeted vs Baseline): 35% | % Change of SUV normalized to plasma, Frontal Cortex ([7]; rats, Pretargeted vs Baseline): 29% | % Change of SUV normalized to plasma, Hippocampus ([7]; rats, Pretargeted vs Baseline): 34% | % Change of SUV normalized to plasma, Hypothalamus ([7]; rats, Pretargeted vs Baseline): 20% | % Change of SUV normalized to plasma, Striatum ([7]; rats, Pretargeted vs Baseline): 16% | % Change of SUV normalized to plasma, Thalamus ([7]; rats, Pretargeted vs Baseline): 18% | % Change of SUV normalized to plasma, Whole Brain ([7]; rats, Pretargeted vs Baseline): 26% | % Change of SUV Cerebellum [7, 22]: 25% | % Change of SUV Cortex [7, 22]: 33% | % Change of SUV Frontal Cortex [7, 22]: 25% | % Change of SUV Hippocampus [7, 22]: 29% | % Change of SUV Hypothalamus [7, 22]: 17% | % Change of SUV Striatum [7, 22]: 16% | % Change of SUV Thalamus [7, 22]: 19% | % Change of SUV Whole Brain [7, 22]: 23% | brain entry of tracer ([7]; rats, highest uptake in thalamus/hypothalamus, lowest in cortical regions): readily entered the brain | BPB (rat) unbound [8]: 51% | fraction unbound [9]: 0.375 | parent compound fraction of total activity in plasma ([10]; 5 min): 82% | parent compound fraction of total activity in plasma ([10]; 60 min): 62% | brain uptake [11]: 1.7±0.9 % ID | half-life [12]: 1.4 h
